How the values were obtained:
NF-κB target genes = assay: qRT-PCR of NF-κB target genes in LPS-stimulated Raw 264.7 cells; format: cell-based, mouse; details: Raw 264.7, LPS
Method: Effect of the NBD mimetics on expression of NF-kB regulated genes in the Raw mouse macrophage cell line. Treatment of the Raw cells with the indicated drugs prior to addition of LPS reduced NF-kB-mediated gene expression as measured by RT-PCR.
To determine whether the inhibitory effect of the mimetics is TNF-α-dependent, LPS-mediated NF-κB activation via TLR4 was examined to determine a broader inhibitory effect of the novel NBD mimetics. NF-κB was stimulated in Raw 264.7 by 1 ug/ml of LPS for 2 hr and genes transcriptionally regulated by NF-κB were determined by qRT-PCR analysis. Both an IKK active site inhibitor IKKi VII (2 μM) and the 8K-NBD peptide (400 μM) were included as positive controls and the expression of COX2, IL-6, IL-1β, TNF-α, IκBα and iNOS were assessed.
Raw 264.7 cells were treated with a 50 μM solution of the SR compound for 30 minutes, and then the mRNA was harvested 2 hours after addition of 1 μg/mL LPS.
Snap frozen tissues were preserved in RNAlater RNA stabilization solution (ThermoFisher) before processed. Total RNA was extracted from cells or tissues using TRIZOL reagent (Life Technologies) and 1500 ng of messenger RNA (mRNA) was subjected to synthesize complementary DNA (cDNA) using SuperScript VILO cDNA synthesis kit. qRT-PCR was performed in a StepOnePlus Real-Time PCR system using Platinum SYBR Green qPCR SuperMix-UDG (ThermoFisher). Target gene expression was calculated using the comparative CT method (ΔΔCT) and normalized to an internal control gene Actb (β-actin). Primers used are as follows: Ptgs2 (COX-2) forward: […]; Ptgs2 (COX-2) reverse: […]; Nfkbia (IκBα) forward: […]; Nfkbia (IκBα) reverse: […]; Il1b (IL-1β) forward: […]; Il1b (IL-1β) reverse: […]; Nos2 (iNOS) forward: […]; Nos2 (iNOS) reverse: […]; Tnf (TNF) forward: […]; Tnf (TNF) reverse: […]; Il6 (IL-6) forward: […]; Il6 (IL-6) reverse: […]. Actb (β-actin) forward: […]; Actb (β-actin) reverse: […];

[1] = tested on: K14-Cre; Ercc1−/flox mice; assay: Topical treatment of skin aging in K14-Cre; Ercc1−/flox mice; format: in vivo, mouse; details: daily
Method: To test the ability of NBDA-1 to function in vivo, the drug was tested in several models of aging. In FIG. 12, the ability of topical treatment of NBDA-1 to reduce signs of skin aging is shown. Areas on the back of normal mice or mice with enhanced skin aging (K14-Cre; Ercc1^−/flox) were shaved and then treated daily with drugs or control creams.

IKKβ-NEMO interaction = assay: Immunoprecipitation of NEMO and IKKβ immunoblot in Raw 264.7 macrophages and HEK293 cells; format: cell-based; details: Raw 264.7 macrophages / HEK293; mimetics 100 μM, 8K-NBD 400 μM
Method: The NBD mimetics reduce the interaction between IKKg (NEMO) and IKKß. The indicated concentrations of the drugs were added to HEK 293 or Raw 264.7 cells and cell extracts prepared 30 minutes later. Following immunoprecipitation (IP) of NEMO, the Western was probed for IKKß.
After treatment with the mimetics or NBD peptide, NEMO was immunoprecipitated by an anti-NEMO antibody and IKKβ was immunoblotted to determine the binding of IKKβ to NEMO.
HEK293 or Raw264.7 cells were seeded at 1×10^6 cells/well in 6-well plates and treated with vehicle, small molecule or NBD peptide for indicated time. Cells were lysed in NP-40 lysis buffer supplemented with 1× protease inhibitor cocktails (sigma). Protein was immunoprecipitated by incubating 150 μg of lysate with 1 μg of anti-NEMO antibody (Santa Cruz) on a rotating shaker at 4° C. for 4 hrs, followed by incubation with 20 ul of Protein A agarose beads (ThermoFisher) for 1 hr. Beads were washed in NP40 buffer 3 times and PBS once. Protein was then denatured in SDS-sample buffer and resolved by MINI-PROTEAN TGX 4-15% SDS-PAGE. Anti-IKKβ (1:1000 CST) was used to assess binding of IKKβ to NEMO and anti-NEMO (1:1000 CST) or IgG were used to as a loading control.

Ercc1−/Δ mice = assay: Systemic treatment of Ercc1−/Δ mice, intervertebral disc proteoglycan; format: in vivo, mouse; details: IP 3× a week, 10 mg/kg for 8 weeks
Method: The ability of the compounds to work systemically was also tested. In these experiments, Ercc1^−/Δ mice with accelerated aging (lifespan of 5 months) were treated systemically, 3× a week, by IP injection at a dose of 10 mg/kg for 8 weeks. Since we previously had shown that the NF-κB is a key factor in driving intervertebral disc degenerated, we assessed the effects of treatment on proteoglycan synthesis and content in the discus following treatment.

[2] = target: T1, IKK complex (IKKß, IKKα and NEMO) (Homo sapiens, UniProt Q9Y6K9); assay: Co-immunoprecipitation of NEMO with IKKß in 293 cells; format: cell-based; details: Zinc-5 at 4 hours, Zinc-13 at 1 hour, NBD peptide at 4 hours
T1 construct: analyzed by Western blot for the level of co-precipitated NEMO; endogenous in cells; host or cells: 293 (HEK293) cells
T1 sequence (Q9Y6K9 whole entry, one chain of several): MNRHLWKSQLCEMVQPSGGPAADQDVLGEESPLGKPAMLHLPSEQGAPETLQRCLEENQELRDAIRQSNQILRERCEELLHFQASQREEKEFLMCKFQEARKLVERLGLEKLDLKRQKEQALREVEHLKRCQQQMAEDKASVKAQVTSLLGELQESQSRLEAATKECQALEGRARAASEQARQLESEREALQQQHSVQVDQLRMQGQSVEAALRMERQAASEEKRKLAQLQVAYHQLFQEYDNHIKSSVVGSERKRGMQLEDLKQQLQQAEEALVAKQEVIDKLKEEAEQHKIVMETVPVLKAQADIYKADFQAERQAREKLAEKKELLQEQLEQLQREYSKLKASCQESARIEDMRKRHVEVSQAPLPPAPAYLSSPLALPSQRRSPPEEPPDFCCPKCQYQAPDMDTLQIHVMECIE
Text: FIG. 8 is a bar graph showing the inhibition of TNFα by NBDA-1 (Zinc-13). […] In addition, we have examined the ability of the compounds to disrupt the IKK complex, comprised of IKKß, IKKα and NEMO.
A non-functional, related compound Zinc-7 had no effect.

mdx mice = assay: Chronic treatment of mdx mice (Duchenne muscular dystrophy model); format: in vivo, mouse; details: ip 3 times/week for 4 weeks
Text: Mdx mice develop normally at birth, and then undergo a massive myonecrosis starting at three weeks. Treatment of mdx mice with IKK/NF-kB inhibitors effectively reduces inflammation, block necrosis and increase muscle regeneration. Mdx mice were chronically treated with vehicle, SR12343, SR12460 or 8K-NBD starting from day 21, 3 times/week for 4 weeks. […] To determine if SR12343 and SR12460 improve muscle pathology, tibialis anterior (TA) muscle was stained with hematoxylin and eosin (H&E) to assess inflammatory infiltration, necrosis, central nucleation and fibrosis. […] Fiber size in centrally nucleated and non-centrally nucleated myofibers was also smaller in mice treated with SR12343 and 8K-NBD, indicating active reconstruction of myofiber during the regenerative phase.
To determine muscle strength post-treatment, grip strength test on forelimbs was performed 2 weeks and 4 weeks post-treatment.
HEK293 cells were grown in Dulbecco's Modification of Eagles Medium (with 4.5 g/L glucose and L-glutamine), supplemented with 10% fetal bovine serum, penicillin and streptomycin. Raw264.7 cells were cultured in RPMI-1640 media containing 10% heat-inactivated fetal bovine serum, penicillin and streptomycin. C57BL/10ScSn-Dmd^mdx/J and female C57BL/6 mice were purchased from the Jackson Laboratory. Mice were housed in the animal facilities of Scripps Fla. under constant temperature and humidity. Animal protocols used in this study were approved by Scripps Fla. Institutional Animal Care and Use Committees. Three week-old sex-matched mdx mice were dosed with SR12343 (30 mg/kg), […] (30 mg/kg), 8K-NBD peptide (10 mg/kg) or vehicle by intraperitoneal (i.p.) injection 3 times per week for 4 weeks. Mice were sacrificed at 7 weeks of age by carbon dioxide inhalation and tibialis anterior was collected for histological analysis.
Seven week-old treated or untreated mdx mice were measured for forelimb grip strength using a digital grip strength meter paired with a metal grid (Bioseb). Mice were allowed to grip the metal grid tightly and readings were obtained by gently pulling the tail backward until release. Five sequential measurements were performed and the average force was calculated.
Tissues fixed in 10% neutral buffered formalin (NBF) overnight were imbedded in paraffin. Tissue was sectioned at […] using a microtome. H&E staining was conducted following a standard protocol (REF).

8K-NBD peptide: 8K-NBD (KKKKKKKKGGTALDWSWLQTE) peptide, NEMO binding domain peptide with protein transduction domain, control [reference compound]
iNOS expression (NF-κB target genes): significantly inhibited
epidermal thickness / skin architecture [1]: improved skin architecture and increased epidermal thickness
disruption of IKKβ-NEMO interaction (NEMO IP, IKKβ blot) (IKKβ-NEMO interaction): able to disrupt the protein-protein interaction in macrophages at 400 μM
proteoglycan synthesis and content in the intervertebral disc (Ercc1−/Δ mice): restored proteoglycan synthesis and content back to levels seen in normal, young mice
level of NEMO co-immunoprecipitated with IKKß [2]: reduced the level of co-immunoprecipitated NEMO
expression of eMyHC and Pax 7 in TA muscle (qRT-PCR) (mdx mice): increased eMyHC expression, but to a lower extent compared to SR12343
fiber size in centrally nucleated and non-centrally nucleated myofibers (mdx mice): smaller
tibialis anterior muscle pathology (H&E) (mdx mice; SR compounds 30 mg/kg, 8K-NBD 10 mg/kg): reduced inflammatory cell infiltration and necrosis and also promoted muscle regeneration
